# Measured values published in patent publication US9255100B2 (BAYER INTELLECTUAL PROPERTY GMBH, priority 2010, dated 2016).
# Molecular target: T1, N-terminally GST-tagged human full length recombinant Mps-1 kinase (Homo sapiens, UniProt P33981)
# T1 construct: N-terminally GST-tagged human full length recombinant Mps-1 kinase; purchased Invitrogen, Karslruhe, Germany PV4071
# T1 sequence (P33981 1-857): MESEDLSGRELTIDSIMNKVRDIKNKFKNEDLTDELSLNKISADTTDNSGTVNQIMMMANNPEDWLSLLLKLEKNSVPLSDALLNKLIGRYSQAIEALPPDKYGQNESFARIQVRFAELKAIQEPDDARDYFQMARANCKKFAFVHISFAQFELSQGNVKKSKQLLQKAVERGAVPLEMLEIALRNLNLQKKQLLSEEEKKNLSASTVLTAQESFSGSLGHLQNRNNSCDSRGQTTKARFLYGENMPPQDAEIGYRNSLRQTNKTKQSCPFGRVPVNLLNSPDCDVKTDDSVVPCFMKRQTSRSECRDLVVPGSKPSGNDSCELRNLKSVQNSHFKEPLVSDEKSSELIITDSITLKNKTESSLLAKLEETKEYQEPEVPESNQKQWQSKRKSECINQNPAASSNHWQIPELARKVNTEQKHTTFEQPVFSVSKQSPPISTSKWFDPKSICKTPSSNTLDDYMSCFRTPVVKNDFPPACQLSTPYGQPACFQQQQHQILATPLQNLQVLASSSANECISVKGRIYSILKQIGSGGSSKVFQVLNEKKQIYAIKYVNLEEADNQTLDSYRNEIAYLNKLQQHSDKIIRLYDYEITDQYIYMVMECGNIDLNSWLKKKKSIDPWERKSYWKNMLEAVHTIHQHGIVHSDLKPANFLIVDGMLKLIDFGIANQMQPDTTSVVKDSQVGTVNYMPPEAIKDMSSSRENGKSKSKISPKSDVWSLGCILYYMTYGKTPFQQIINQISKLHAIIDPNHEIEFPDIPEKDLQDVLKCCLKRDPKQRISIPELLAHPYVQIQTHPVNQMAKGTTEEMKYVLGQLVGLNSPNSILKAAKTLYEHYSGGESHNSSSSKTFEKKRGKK
# Experiment: Mps-1 kinase assay (TR-FRET)
# Assay type: biochemical
# Details: Mps1 IC50 [nM], 10 μM ATP, 1 μM peptide substrate, 60 min at 22° C.
# In short: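 Next, Eu-labelled anti-phospho(Ser/Thr) antibody and SA-XLent bind for 1 h at 22° C. Finally, energy transfer quantifies phosphorylated product.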
row,SMILES,IC50
1,"Cc1cc(-c2cnc3c(NCC(C)(C)O)cc(Nc4ccc(CCO)cc4)nn23)ccc1C(=O)NC1CC1 [Example 386, N-cyclopropyl-4-(6-{[4-(2-hydroxyethyl)phenyl]amino}-8-[(2-hydroxy-2-methylpropyl)amino]imidazo[1,2-b]pyridazin-3-yl)-2-methylbenzamide]",1.5 nM
2,"CC(C)CNc1cc(-c2ccccc2O)nn2c(-c3ccc(C(=O)NC4CC4)cc3)cnc12 [Example 139, N-cyclopropyl-4-{6-(2-hydroxyphenyl)-8-[(2-methylpropyl)amino]imidazo[1,2-b]pyridazin-3-yl}benzamide]",3.7 nM
3,"CNc1ccccc1Oc1cc(NC)c2ncc(-c3ccc(C(=O)NC4CC4)c(C)c3)n2n1 [Example 531, N-cyclopropyl-2-methyl-4-{8-(methylamino)-6-[2-(methylamino)phenoxy]imidazo[1,2-b]pyridazin-3-yl} benzamide]",14.8 nM
4,"CC(C)CNc1cc(-c2cccc(C(=O)NC(C)C)c2)nn2c(-c3ccc(C(=O)NC4CC4)cc3)cnc12 [Example 134, 3-{3-[4-(Cyclopropylcarbamoyl)phenyl]-8-[(2-methylpropyl)amino]imidazo[1,2-b]pyridazin-6-yl}-N-(propan-2-yl) benzamide]",< 1 nM
5,"CC(C)CNc1cc(-c2cccc3cnccc23)nn2c(-c3ccc(C(=O)NC4CC4)cc3)cnc12 [Example 118, N-cyclopropyl-4-{6-(isoquinolin-5-yl)-8-[(2-methylpropyl)amino]imidazo[1,2-b]pyridazin-3-yl}benzamide]",4.3 nM
6,"CC(C)CNc1cc(-c2cncc(C#N)c2)nn2c(-c3ccc(C(=O)NC4CC4)cc3)cnc12 [Example 147, 4-{6-(5-Cyanopyridin-3-yl)-8-[(2-methylpropyl)amino]imidazo[1,2-b]pyridazin-3-yl}-N-cyclopropylbenzamide]",2.2 nM
7,"Fc1ccc(-c2cc(NCCC(F)(F)F)c3ncc(-c4ccc(-c5cnc(C6CC6)[nH]5)cc4)n3n2)cc1 [Example 6, 3-[4-(2-Cyclopropyl-1H-imidazol-5-yl)phenyl]-6-(4-fluorophenyl)-N-(3,3,3-trifluoropropyl)imidazo[1,2-b]pyridazin-8-amine]",43.6 nM
8,"CC(C)(O)CNc1cc(Sc2cccc(F)c2)nn2c(-c3ccc(C(=O)NC4CC4)cc3O)cnc12 [Example 62A, N-cyclopropyl-4-{6-[(3-fluorophenyl)sulfanyl]-8-[(2-hydroxy-2-methylpropyl)amino]imidazo[1,2-b]pyridazin-3-yl}-3-hydroxybenzamide]",0.2 nM
9,"CC(C)CNc1cc(-c2ccnn2C)nn2c(-c3ccc(C(=O)NC4CC4)cc3)cnc12 [Example 137, N-cyclopropyl-4-{8-[(2-methylpropyl)amino]-6-(1-methyl-1H-pyrazol-5-yl)imidazo[1,2-b]pyridazin-3-yl}benzamide]",< 1 nM
10,"Cc1cc(-c2cnc3c(NCC(C)C)cc(S(=O)(=O)c4ccccc4)nn23)ccc1C(=O)NC1CC1 [Example 198, N-cyclopropyl-2-methyl-4-{8-[(2-methylpropyl)amino]-6-(phenylsulfonyl)imidazo[1,2-b]pyridazin-3-yl}benzamide]",2.6 nM
11,"Cc1cc(-c2cnc3c(NCC4CN(C(=O)OC(C)(C)C)C4)cc(-c4ccccc4CO)nn23)ccc1C(=O)NC1CC1 [Example 339, tert-butyl 3-[({3-[4-(cyclopropylcarbamoyl)-3-methylphenyl]-6-[2-(hydroxy-methyl)phenyl]imidazo[1,2-b]pyridazin-8-yl}amino)methyl]azetidine-1-carboxylate]",95.9 nM
12,"Cc1cccc(-c2cc(NCC(C)C)c3ncc(-c4ccc(C(=O)NC5CC5)cc4)n3n2)c1 [Example 105, N-cyclopropyl-4-{6-(3-methylphenyl)-8-[(2-methylpropyl)amino]imidazo[1,2-b]pyridazin-3-yl}benzamide]",3.5 nM
13,"Cc1cc(-c2cnc3c(NCCn4cccn4)cc(Oc4cccc(F)c4)nn23)ccc1C(=O)NC1CC1 [Example 515, N-cyclopropyl-4-[6-(3-fluoro-phenoxy)-8-{[2-(1H-pyrazol-1-yl)ethyl]amino}imidazo[1,2-b]pyridazin-3-yl]-2-methyl-benzamide]",0.4 nM
14,"CC(C)CNc1cc(-c2cccnc2)nn2c(-c3ccc(C(=O)NC4CC4)cc3)cnc12 [Example 138, N-cyclopropyl-4-{8-[(2-methylpropyl)amino]-6-(pyridin-3-yl)imidazo [1,2-b]pyridazin-3-yl} benzamide]",2 nM
15,"CC(C)CNc1cc(-c2ccc(-c3ccccc3)cc2)nn2c(-c3ccc(C(=O)NC4CC4)cc3)cnc12 [Example 130, 4-{6-(Biphenyl-4-yl)-8-[(2-methylpropyl)amino]imidazo[1,2-b]pyridazin-3-yl}-N-cyclopropylbenzamide]",5.9 nM

# Next, values leading:
row,IC50,SMILES
1,0.2 nM,"Cc1cc(-c2cnc3c(NCCC(F)(F)F)cc(Sc4ccc(F)c(F)c4)nn23)ccc1C(=O)NC1CC1 [Example 249, N-cyclopropyl-4-{6-[(3,4-difluorophenyl)sulfanyl]-8-[(3,3,3-trifluoropropyl)amino]imidazo[1,2-b]pyridazin-3-yl}-2-methylbenzamide]"
2,0.1 nM,"Cc1ccc(F)cc1Oc1cc(NCC2CNC2)c2ncc(-c3ccc(C(=O)NC4CC4)c(C)c3)n2n1 [Example 545, 4-{8-[(azetidin-3-ylmethyl)amino]-6-(5-fluoro-2-methylphenoxy)imidazo[1,2-b]pyridazin-3-yl}-N-cyclopropyl-2-methylbenzamide]"
3,< 0.7 nM,"O=C(NC1CC1)c1ccc(-c2cnc3c(NCCC(F)(F)F)cc(Sc4ccccc4)nn23)c(O)c1 [Example 74, N-cyclopropyl-3-hydroxy-4-{6-(phenylsulfanyl)-8-[(3,3,3-trifluoropropyl)amino]imidazo[1,2-b]pyridazin-3-yl}benzamide]"
4,0.2 nM,"Cc1cc(-c2cnc3c(NCCCN(C)C)cc(Oc4cccc(F)c4)nn23)ccc1C(=O)NC1CC1 [Example 312, N-cyclopropyl-4-[8-{[3-(dimethylamino)propyl]amino}-6-(3-fluorophenoxy)imidazo[1,2-b]pyridazin-3-yl]-2-methyl-benzamide]"
5,1 nM,"Cc1cc(-c2cnc3c(NCC(C)(C)O)cc(Nc4ccc(Cl)c(F)c4)nn23)ccc1C(=O)NC1CC1 [Example 401, 4-{6-[(4-chloro-3-fluorophenyl)amino]-8-[(2-hydroxy-2-methylpropyl)amino]imidazo[1,2-b]pyridazin-3-yl}-N-cyclopropyl-2-methylbenzamide]"
6,0.1 nM,"CC(=O)NCCCNc1cc(Oc2cccc(F)c2)nn2c(-c3ccc(C(=O)NC4CC4)c(C)c3)cnc12 [Example 509, 4-[8-{[3-(acetylamino)propyl]amino}-6-(3-fluorophenoxy)imidazo[1,2-b]pyridazin-3-yl]-N-cyclopropyl-2-methyl-benzamide]"
7,0.3 nM,"COc1ccc(C)c(Nc2cc(NCCC(F)(F)F)c3ncc(-c4ccc(C(=O)NC5CC5)c(C)c4)n3n2)c1 [Example 430, N-cyclopropyl-4-{6-[(5-methoxy-2-methylphenyl)amino]-8-[(3,3,3-trifluoropropyl)amino]imidazo[1,2-b]pyridazin-3-yl}-2-methylbenzamide]"
8,< 1 nM,"CCNC(=O)c1ccc(-c2cnc3c(NCCC(F)(F)F)cc(Oc4ccc(OC)c(F)c4)nn23)cc1C [Example 604, N-ethyl-4-{6-(3-fluoro-4-methoxyphenoxy)-8-[(3,3,3-trifluoropropyl)a-mino]imidazo[1,2-b]pyridazin-3-yl}-2-methylbenzamide]"
9,0.6 nM,"C=C(c1ccccc1)c1cc(NCCC(F)(F)F)c2ncc(-c3ccc(C(=O)NC4CC4)c(C)c3)n2n1 [Example 482, N-cyclopropyl-2-methyl-4-{6-(1-phenylethenyl)-8-[(3,3,3-trifluoropropyl)amino]imidazo[1,2-b]pyridazin-3-yl}benzamide]"
10,3.5 nM,"Cc1cc(-c2cnc3c(NCCC(F)(F)F)cc(Sc4nncn4C)nn23)ccc1C(=O)NC1CC1 [Example 419, N-cyclopropyl-2-methyl-4-{6-[(4-methyl-4H-1,2,4-triazol-3-yl)sulfanyl]-8-[(3,3,3-trifluoropropyl)amino]imidazo[1,2-b]pyridazin-3-yl}benzamide]"
11,0.4 nM,"COc1cc(Nc2cc(NCCC(F)(F)F)c3ncc(-c4ccc(C(=O)NC5CC5)c(C)c4)n3n2)ccc1F [Example 422, N-cyclopropyl-4-{6-[(4-fluoro-3-methoxyphenyl)amino]-8-[(3,3,3-trifluoropropyl)amino]imidazo[1,2-b]pyridazin-3-yl}-2-methylbenzamide]"
12,7.1 nM,"C=Cc1cc(NCCC(F)(F)F)c2ncc(-c3ccc(C(=O)NC4CC4)c(C)c3)n2n1 [Example 41, N-cyclopropyl-2-methyl-4-{8-[(3,3,3-trifluoropropyl)amino]-6-vinylimidazo[1,2-b]pyridazin-3-yl}benzamide]"
